pIC50: −log10 of the molar value. Where a name gives a salt, the structure may show the parent alone.
How the values were obtained:
[1] = Stability of the compounds in human blood plasma; assay type: in vitro ADME; details: pooled human blood plasma, 10 μM, 4 hours at 37° C.
Description: To assess the blood plasma stability of the compounds, we used pooled human blood plasma taken from ten healthy donors. The initial candidate solution (10 mM in DMSO) was diluted with pooled blood plasma to a concentration of 10 μm (test solution). The test solution was incubated in a dry block thermostat for 4 hours at 37° C. HPLC with Agilent 1200 liquid chromatography system (Agilent, USA) was employed to determine peak areas of the compounds in test samples, said peak areas corresponding to the initial test time (prior to incubation) and the final test time (after incubation in a dry block thermostat for 4 hours at 37° C.), proteins were preliminarily precipitated with acetonitrile. Chromatographic analysis was performed in a gradient elution regime with a flow rate of 1 mL/min Substance amount in % in a sample after thermostatting was determined.
The stability of the compounds was estimated. The compounds described herein show at least 90% chemical stability, i.e. they are chemically stable in human blood plasma (Table 2).

[2] = Permeability through Caco-2 cell monolayer; assay type: in vitro ADME; details: human; for Papp A→B at 2 h, 10 μM: Caco-2, A→B, pH 6.5/7.4, 2 hour incubation; for efflux ratio at 2 h, 10 μM: Caco-2, Papp B-A/Papp A-B
Description: Estimation of permeability through Caco-2 cell monolayer enables assessment of the ability of the substances to penetrate through biological membranes by means of both active and passive transport.
Intestinal epithelial cells Caco-2 were grown on filter inserts (pore size 0.4 jam, BD Falcon with High Density) for 21 days; monolayer integrity was then checked using Lucifer Yellow (Sigma-Aldrich, USA) according to the standard protocol. In A→B transfer (“intestinal lumen”-“blood stream” transfer), solutions of the test substances in buffer, pH 6.5 (HBSS, 10 mM HEPES, 15 mM glucose) at a concentration of 10 μM were added to the upper chamber; whereas the lower chamber was filled with buffer, pH 7.4 (HBSS, 10 mM HEPES, 15 mM Glucose, 1% BSA). In B→A transfer (“blood stream”-“intestinal lumen” transfer), the upper chamber was filled with buffer, pH 6.5, whereas the solutions of the test substances in buffer, pH 7.4, at a concentration of 10 μM were added to the lower chamber. A highly permeable substance propranolol was used as a control.
After 2 hour incubation at 37° C. under an atmosphere containing 5% CO2, the amounts of the test substances in the upper and lower chambers were measured by HPLC using an Agilent1200 HPLC system (Agilent, USA), proteins were preliminarily precipitated with acetonitrile. Chromatographic analysis was performed in a gradient elution regime with a flow rate of 1 mL/min. The peak areas corresponding to the compounds were detected on chromatograms. Based on the peak areas of a compound in the calibration standards, concentration of the compound in the initial solution and in the samples from upper chamber wells and lower chamber wells was measured.
Cellular permeability coefficient Papp was calculated by the formula: Papp=(Ca(t)*Va)/(Cd(0)*t*Area), where Papp is the effective permeability constant, m/s V is the volume of solution (0.8 ml in A→B test, 0.2 ml in B→A test), ml Area is the membrane surface area (0.33 cm^2), cm^2 t is the time of incubation (7200 sec), sec Cd(0) is the initial solution concentration, μM Ca(t) is the concentration of the solution after 2 hours (the concentration in the sample from the well of the lower chamber in A→B test; the concentration in the sample from the well of the top chamber in B→A test), μM
The value was calculated by the following formula: efflux=Papp B-A/Papp A-B, where Pape A-B-direct A→B test permeability value Papp B-A-reverse B→A test permeability value

[3] = General cytotoxicity on HepG2 cells; assay type: cell-based; details: human, 72 h incubation
Description: The CC50 values were determined in the test for General cytotoxicity On HepG2 cells (hepatocellular carcinoma, ATCC® HB-8065™). Cells per well were seeded in 96-well plates (Corning, #3599) at a concentration ≈20×10^3 cells in 100 μL of medium and incubated for 72 h with added compounds within the range of concentrations of 200 to 0.78 μM. Cell viability was assessed using the above method.

MV4-11 cells = assay: Antiproliferative activity, MV4-11 cells (AlamarBlue); assay type: cell-based; details: Homo sapiens, 120 h incubation, read-out: MV-4-11 IC50
Description: (§1) Antiproliferative activity of CDK8 inhibitors according to the present invention was measured in a cell-based test on continuous cell cultures MV4-11 (biphenotypic myelomonocytic leukemia, ATCC® CRL-9591™), KG-1 (acute myeloid leukemia, ATCC® CCL-246™) using a vital stain AlamarBlue (ThermoFisher, #DAL1100). The cells were grown in RPMI-1640 (PanEco, #C330p) medium with addition of 10% FBS (Gibco, #16140-071); washed and resuspended in culture medium with 10% FBS (Gibco, #16140-071) in 96-well culture plates (Corning, #3599) with ≈10×10^3 cells in […] of medium per well. The compounds in question were dissolved in DMSO and diluted with a medium with 10% FBS (Gibco, #16140-071) to a final concentration ranging from 0 to 100 μM. […] of diluted compounds were then added to each well (final DMSO concentration was less than 1%) and incubated under 5% CO2 atmosphere at 37° C. for 120 h. After incubating, 15 μL/well of AlamarBlue (ThermoFisher, #DAL1100) reagent was added, contents of plates were mixed in an orbital shaker (Biosan, Latvia) and further incubated for 3-5 h at 37° C. under 5% CO2 atmosphere. Number of living cells was estimated using a microplate spectrophotometer (Tecan Infinite M200Pro, Switzerland) measuring fluorescent signal at the excitation wavelength (λEx) of 540 nm and emission wavelength (λEm) of 590 nm.
(§2) IC50 values were calculated using Magellan 7.2 software (Tecan, Switzerland) approximating experimental points by four-parameter logistic model with the optimization by Levenberg-Marquardt (Table 6).

CDK8/Cyclin C = CDK8/Cyclin C (Homo sapiens (Human), UniProt P49336); assay: LanthaScreen binding to recombinant CDK8/Cyclin C; details: TR-FRET, Tracer 236 10 nM, CDK8/Cyclin C 5 nM
Chain of CDK8/Cyclin C (P49336 whole entry): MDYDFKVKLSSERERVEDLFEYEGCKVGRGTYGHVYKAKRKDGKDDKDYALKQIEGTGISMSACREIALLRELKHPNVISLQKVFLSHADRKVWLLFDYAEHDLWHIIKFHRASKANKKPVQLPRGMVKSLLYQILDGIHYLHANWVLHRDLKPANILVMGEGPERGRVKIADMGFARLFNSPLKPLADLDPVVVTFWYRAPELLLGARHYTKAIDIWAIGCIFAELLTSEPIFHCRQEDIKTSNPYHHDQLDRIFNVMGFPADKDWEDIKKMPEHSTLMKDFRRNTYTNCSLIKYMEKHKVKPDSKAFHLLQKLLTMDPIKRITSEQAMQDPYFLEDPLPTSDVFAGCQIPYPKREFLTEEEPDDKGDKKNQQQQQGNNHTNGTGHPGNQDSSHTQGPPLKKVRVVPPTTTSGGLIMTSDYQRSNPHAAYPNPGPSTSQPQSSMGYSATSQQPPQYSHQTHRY
Chain of CDK8/Cyclin C (P24863 whole entry partner): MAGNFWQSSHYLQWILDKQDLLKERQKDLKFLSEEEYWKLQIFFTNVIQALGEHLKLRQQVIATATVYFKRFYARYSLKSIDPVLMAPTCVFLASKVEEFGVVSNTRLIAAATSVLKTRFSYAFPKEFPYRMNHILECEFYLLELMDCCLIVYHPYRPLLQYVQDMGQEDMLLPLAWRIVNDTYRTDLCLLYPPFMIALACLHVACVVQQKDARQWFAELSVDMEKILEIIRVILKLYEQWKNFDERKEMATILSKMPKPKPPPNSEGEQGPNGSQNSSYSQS
Description: Capability of compounds of the present invention to bind to CDK8 protein was detected using LanthaScreen (ThermoFisher) assay. We detected FRET signal proportional to the amount of CDK8-bound fluorescently-labeled ligand (Tracer 236) that competes with inhibitor for ATP binding site. We carried out the measurements in a 15 μl reaction volume using a 384-well plate (Corning, #CLS4513). Enzyme CDK8/Cyclin C (ThermoFisher, #PR7261B) was mixed with antibodies Anti-His-tag-Biotin (ThermoFisher, #PV6090), Streptavidin-Eu (ThermoFisher, #PV6025), the resulting mixture was added to plate wells (5 MKπ/well). Final concentrations of substances were as follows: CDK8/Cyclin C—5 nM, Streptavidin-Eu—3 nM, Anti-His-tag-Biotin—3 nM. Staurosporine (S4400, Sigma) was used as a reference inhibitor, and 0.1% solution of dimethyl sulphoxide (DMSO) in reaction buffer was used as a blank, the reaction buffer comprised 250 mM HEPES (pH 7.5), 50 mM MgCl2, 5 mM EGTA, and 0.05% Brij-35.
The inhibitors and controls in question were added to corresponding wells (5 μl/well). The plate was incubated at room temperature for 20 minutes. After incubating, 5 μl/well of tracer solution Alexa Fluor-647 (Kinase Tracer 236, ThermoFisher, #PV5592)) was added to the wells. Final concentration of tracer was 10 nM. Reaction buffer, instead of tracer solution, was used as a negative control. The plate was incubated for 40 minutes at 25° C., TR-FRET signal was then measured according to the manufacturer's guidelines on SPARK20 plate reader (Tecan, Switzerland), and the value was converted to the amount of kinase-bound tracer. IC50 values were calculated using SparkControl Magellan 1.2 software (Tecan, Switzerland) approximating experimental points by four-parameter logistic model with the optimization by Levenberg-Marquardt (Table 5).

KG-1 cells = assay: Antiproliferative activity, KG-1 cells (AlamarBlue); assay type: cell-based; details: 120 h incubation
Description: as §1, §2

Compound | Chemical stability in human blood plasma 4 h, % [1] | Papp A→B at 2 h, 10 μM [2] | efflux ratio at 2 h, 10 μM [2] | pIC50 (MV4-11 cells) | pIC50 (CDK8/Cyclin C) | CC50 at 72 h [3] | pIC50 (KG-1 cells; Homo sapiens, KG-1, 120 h) | pIC50 (KG-1 cells; dihydrochloride)
COCCn1cc(-c2ccc(-c3cnc(N)c4ncc(C(=O)N5CCN(C)CC5)cc34)cc2)cn1 [Compound 3.51, (8-amino-5-(4-(1-(2-methoxyethyl)-1H-pyrazole-4-yl)phenyl)-1,7-naphthyridin-3-yl)(4-methylpiperazine-1-yl)methanone] | 100.0% | 26.2 ×10⁻⁶ cm/s | 1.88 | 7.77 | 8.84 | > 100000 nM | 7.89 | –
COCCn1cc(-c2ccc(-c3cnc(N)c4ncc(C(=O)N5CCC5)cc34)cc2)cn1 [Compound 3.54, (8-amino-5-(4-(1-(2-methoxyethyl)-1H-pyrazole-4-yl)phenyl)-1,7-naphthyridin-3-yl) (azetidin-1-yl)methanone] | 94.6% | 42.8 ×10⁻⁶ cm/s | 0.55 | 7.80 | 8.90 | ~90000 nM | 7.91 | –
COCCN(C)C(=O)c1cnc2c(N)ncc(-c3ccc(-c4cnn(CC(=O)N(C)C)c4)cc3)c2c1 [Compound 3.55] | – | – | – | – | 8.91 | > 100000 nM | 8.19 | –
COCCN(C)C(=O)c1cnc2c(N)ncc(-c3ccc(-c4cnn(CCOC)c4)cc3)c2c1 [Compound 3.57, 8-amino-N-(2-methoxyethyl)-5-(4-(1-(2-methoxyethyl)-1H-pyrazole-4-yl)phenyl)-N-methyl-1,7-naphthyridine-3-carboxamide] | – | – | – | – | 8.64 | ~90000 nM | 7.77 | –

More lines, in order of rising pIC50 (CDK8/Cyclin C), values ahead:

Chemical stability in human blood plasma 4 h, % [1] | Papp A→B at 2 h, 10 μM [2] | efflux ratio at 2 h, 10 μM [2] | pIC50 (MV4-11 cells) | pIC50 (CDK8/Cyclin C) | Compound | CC50 at 72 h [3] | pIC50 (KG-1 cells; Homo sapiens, KG-1, 120 h) | pIC50 (KG-1 cells; dihydrochloride)
– | – | – | 8.42 | 8.69 | CN1CCN(C(=O)Cn2cc(-c3ccc(-c4cnc(N)c5ncc(C(=O)N6CCN(C)CC6)cc45)cc3)cn2)CC1 [Compound 3.50, 2-(4-(4-(8-amino-3-(4-methylpiperazine-1-carbonyl)-1,7-naphthyridine-5-yl)phenyl)-1H-pyrazole-1-yl)-1-(4-methylpiperazine-1yl)ethan-1-one] | > 100000 nM | 7.58 | –
– | – | – | – | 8.79 | CN1CCN(C(=O)c2cnc3c(N)ncc(-c4ccc(-c5cnn(CC(=O)N(C)C)c5)cc4)c3c2)CC1 [Compound 3.49 × 2HCl, 2-(4-(4-(8-amino-3-(4-methylpiperazine-1-carbonyl)-1,7-naphthyridine-5-yl)phenyl)-1H-pyrazole-1-yl)-N,N-dimethylacetamide dihydrochloride] | – | – | 7.80
100.0% | – | – | 9.15 | 8.85 | CN1CCN(C(=O)Cn2cc(-c3ccc(-c4cnc(N)c5ncc(C(=O)NCC6CC6)cc45)cc3)cn2)CC1 [Compound 3.44, 8-amino-N-(cyclopropylmethyl)-5-(4-(1-(2-(4-methylpiperazin-1-yl)-2-oxoethyl)-1H-pyrazole-4-yl)phenyl)-1,7-naphthyridine-3-carboxamide] | 65300 nM | 9.15 | –
– | – | – | – | 8.97 | COCCN(C)C(=O)c1cnc2c(N)ncc(-c3ccc(-c4cnn(CC(=O)N5CCN(C)CC5)c4)cc3)c2c1 [Compound 3.56, 8-amino-N-(2-methoxyethyl)-N-methyl-5-(4-(1-(2-(4-methylpiperazine-1-yl)-2-oxoethyl)-1H-pyrazole-4-yl)phenyl)-1,7-naphthyridine-3-carboxamide] | > 100000 nM | 7.86 | –
100.0% | 15.7 ×10⁻⁶ cm/s | 1.89 | 9.30 | 9.06 | CN(C)C(=O)Cn1cc(-c2ccc(-c3cnc(N)c4ncc(C(=O)NCC5CC5)cc34)cc2)cn1 [Compound 3.43, 8-Amino-N-(cyclopropylmethyl)-5-(4-(1-(2-(dimethylamino)-2-oxoethyl)-1H-pyrazole-4-yl)phenyl)-1,7-naphthyridine-3-carboxamide] | 68100 nM | 9.70 | –
